Tests used:
[1] = test system: adult male Caenorhabditis elegans; assay: Caenorhabditis mating assay (male attraction, time spent in scoring region); format: in vivo; settings: for activity in the attraction assay: 0 to 10000 fmol range; for male attraction activity, each ascaroside tested individually at physiological concentrations: 0 to 10 fmol for ascr#3, 0 to 100 fmol for ascr#2; for male attraction when assayed individually: 10 fmol ascr#3, 100 fmol ascr#2; for shape of dose-response curve: 0.1 fmol to 10,000 fmol (FIG. 4); for male attraction activity at higher concentrations: above the physiological range
Method: Wild-type C. elegans var. N2 Bristol and males from the CB1490 him-5(e1490) mutant were utilized in bioassays. The him-5(e1490) mutant segregates XO male progeny by X chromosome nondisjunction during meiosis. All strains were maintained at 20° C. unless detailed otherwise.
Standard nematode growth medium plates (5 cm diameter) were used for assaying biological activity of the nematode conditioned water. The assay plates comprised of a thin lawn of an overnight grown E. coli OP50 culture with an approximate 0.25 cm gap between the bacterial lawn and the edge of the plate to prevent the nematodes from escaping. Plates were stored at room temperature (20° C.) for two days before being used in trials. Two spots (5 mm in diameter) were spotted 1.6 cm apart from each other on a template and stuck to the bottom of the assay plate. 0.8 μl of the control and the nematode metabolite were placed in the two circles and allowed to dry for approximately 30 seconds. To remove any bias, control and conditioned water spots were interchanged after every trial. Males and hermaphrodites were harvested daily at the fourth larval stage (L4) and stored at 20° C. overnight with 50-60 nematodes of the same sex per plate to be used as young adults the following day. Five nematodes were placed at approximately 1.0 cm away on each side (10 nematodes total) from the spots and allowed to acclimatize for 5 minutes. Trials were videotaped at 30 frames per second for 15 minutes using the Fire-i Unibrain software. For each sample, a minimum of 4-5 trials were conducted each day and each stage was tested on at least three different days.
Each time a nematode entered and left the scoring region it was scored as a nematode event. The time the nematode entered the scoring region and left the scoring region was recorded. Once inside the scoring region, the average time spent by each nematode was noted and the average time spent by the different nematode in the scoring region during the 15 minute interval (control and the conditioned water) were calculated.

[2] = Stability of ascr#2 and ascr#3 in agar plates (LC-MS); format: physicochemical; settings: agar plates with 200 nM stored at room temperature for three months; extract in 1 ml methanol
Method: Agar plates (total volume: 20 ml) prepared from Nobel agar and S-media containing ascr#2 and ascr#3 at a concentration of 200 nM were stored at room temperature for three months and subsequently lyophilized. The residue was powdered using a mortar and extracted with ethanol. The extract was evaporated to dryness, redissolved in 1 ml of methanol, and analyzed via LC-MS, using an Agilent 1100 HPLC system equipped with a 10×250 mm Supelco 5μ ODS preparative column eluted at a flow rate of 3.4 ml/min, and a Micromass Quattro II triple-quadrupole mass spectrometer operated in positive-electrospray ionization mode. A solvent gradient was used starting with a solvent composition of 5% methanol and 95% water, which was maintained for three minutes and then progressed linearly to 100% methanol by 40 minutes, resulting in retention times of 21.3 min (ascr#3) and 25.6 min (ascr#2).

Male C. elegans = assay: Reversal frequency of males on ascaroside agar plates (automated nematode tracker); format: in vivo, Caenorhabditis elegans
Method: Given the nature of the attraction assay, the exact concentration of the compounds tested in the scoring region is not well defined. […] A system used to track the sinusoidal movement of nematodes is disclosed in Cronin et al., 2005. BMC Genet. 6:5 and incorporated herein by reference.
For the tracker assays, standard nematode growth medium was prepared and added the different ascarosides to the required concentrations into the agar. Plates containing the ascarosides were then allowed to cool and stored at 20° C. overnight. Control plates were treated the same way except that instead of the ascaroside, an equivalent quantity of 100% ethanol was added to the agar. Assay plates were seeded with a thin lawn of an overnight grown E. coli OP50 culture and allowed to dry overnight. 10-15 L4 males were picked 14-16 hours before the experiment on E. coli OP50 seeded plates. For each assay, individual males were picked and placed on assay plates. After 5 minutes, males were assayed for 15 min using the automated tracker to get the different locomotion parameters. For each concentration of ascaroside, an equal number of males were tested on control plates. After the recordings, nematodes were processed using automated tracker software and the results were analyzed using in-house matlab scripts.

SMILES	activity in the attraction assay ([1]; single ascaroside)	male attraction activity, each ascaroside tested individually at physiological concentrations ([1]; FIG. 4)	male attraction when assayed individually [1]	shape of dose-response curve ([1]; single ascaroside)	male attraction activity at higher concentrations ([1]; single ascaroside)	time spent in spotted region relative to control region (maximum) ([1]; single ascaroside, FIG. 4)	concentration in the agar extract [2]	increase of reversal frequency (Male C. elegans; ascaroside in agar, FIG. 6B)	rank of male attraction response among single ascarosides ([1]; single ascaroside, FIG. 4)	lowest concentration that increases reversal frequency (Male C. elegans; ascaroside in agar, FIG. 6A)	male attractant concentration lower than required for dauer induction (Male C. elegans; comparison with dauer induction)
C[C@H](CCCCC(=O)O)O[C@@H]1O[C@@H](C)[C@H](O)C[C@H]1O [ASCR #1, 6R-(Tetrahydro-3′R,5′R-dihydroxy-6′S-methyl-2H-pyran-2′R-yloxy)-heptanoic acid]	not active	–	–	–	–	–	–	–	–	–	–
CC(=O)CC[C@@H](C)O[C@@H]1O[C@@H](C)[C@H](O)C[C@H]1O[C@@H]1O[C@H](CO)[C@@H](O)[C@H](O)[C@H]1O [ASCR #4, 5R-(3′-O-[β-D-glucosyl]-tetrahydro-3′R,5′R-dihydroxy-6′S-methyl-2H-pyran-2′R-yloxy)-2-hexanone]	not active	–	–	–	–	–	–	–	–	–	–
CC(=O)CC[C@@H](C)O[C@@H]1O[C@@H](C)[C@H](O)C[C@H]1O [ASCR #2, 5R-(Tetrahydro-3′R,5′R-dihydroxy-6′S-methyl-2H-pyran-2′R-yloxy)-2-hexanone]	–	not active	did not elicit significant male attraction	strongly biphasic activity profile	active	~2.8 fold	3.5 µM	only weak increases	–	–	–
C[C@H](CCCC/C=C/C(=O)O)O[C@@H]1O[C@@H](C)[C@H](O)C[C@H]1O [ASCR #3, 8R-(Tetrahydro-3′R,5′R-dihydroxy-6′S-methyl-2H-pyran-2′R-yloxy)-2E-nonenoic acid]	–	not active	did not elicit significant male attraction	strongly biphasic activity profile	active	approximately 6.6 fold	3.2 µM	–	strongest response	1 pM	more than 10.000 fold

— patent publication US8318146B1, “Ascarosides as nematode sex pheromones” (The United States of America, as represented by the …, priority 2008, dated 2012)
